Laboratory results: paper PMC3502156, “Anti-plasmodial action of de novo-designed, cationic, lysine-branched, amphipathic, helical peptides” (Malaria Journal, 2012)
Values joined by “and” are separate entries in the source; they are usually repeats but may differ in a detail not shown here. Equal values may be shown once. Read-outs that look alike come from different tables or passages of the source. Starred links: 1 amine or outer side, 2 acyl side, 3 side chain; linkers in the order of their positions; H or OH if unused. Positions of bridges follow the written chain, without caps; N, C: chain ends. Non-standard residues stand in square brackets, D forms with d. Residues, ends and D or L forms follow the SMILES beside them. Chains are numbered I, II in the order given. X1 = O=C(/C(=C/c1ccccc1)N[*:1])[*:2]

Experiments:
[1] = test system: P. falciparum Dd2 (CQ-resistant); assay: microbe, parasite or virus in culture; assay type: cell-based, Plasmodium falciparum; conditions: for Resistance index IC50 Dd2/ IC50 3D7: IC50 CQ resistant strain/ IC50 CQ sensitive strain
Experimental: (§1) Chloroquine-sensitive (3D7) and CQ-resistant (Dd2 and INDO) strains of P. falciparum were maintained in continuous culture according to the method of Trager and Jensen with minor modifications. Cultures were maintained in fresh group O^+ve human erythrocytes suspended at 4% haematocrit in complete medium {16.2 g/L RPMI 1640 containing 25 mM HEPES, 11.11 mM glucose (Gibco), 0.2% sodium bicarbonate (Sigma), 0.5% Albumax I (Gibco), 45 μg/litre hypoxanthine (Sigma) and 50 μg/litre gentamicin (Gibco)} and incubated at 37°C under a gas mixture 5% O2, 5% CO2, and 90% N2. Every day, the spent medium was replaced by fresh complete medium to propagate the culture. […] Parasitaemia was monitored by microscopic examination of Giemsa-stained blood smears. Synchronized ring stage parasite was obtained by 5% sorbitol treatment. Trophozoites and schizont-stage parasites were enriched by using Percoll gradient.
(§2) Stock solutions of peptides and CQ were prepared in water (milli-Q grade) while artemisinin stock solution was in dimethyl sulphoxide (DMSO). All stocks were then diluted with culture medium to achieve the required drug concentrations. The concentration of peptide solution in water was based on A280 [ϵ (M^-1 cm^-1) ΔF (didehydrophenylalanine) 19,000, W (Tryptophan) 5,000)]. Thus ϵ280 were 62,000, 124,000, 124,000 and 248,000 for ΔFm, (ΔFm)2, ΔFd and ΔFq respectively. The concentration of FITC-peptides was based on A495 [ϵ(M^-1 cm^-1) FITC 77,000 for (ΔFm)2 with one FITC and 154,000 for ΔFd with two FITC per molecule]. Drugs and peptides solutions were placed in 96-well flat bottom tissue culture grade plates (Corning).
(§3) For drug screening, SYBR green I based fluorescence assay was used as described previously by Smilkstein et al.[30]. Sorbitol synchronized ring stage parasites (haematocrit: 2%, parasitaemia: 1%, 100 μl) under normal culture conditions were incubated in the absence or presence of increasing concentrations of peptides in water. CQ and artemisinin were used as positive controls. […] After 48 hr of incubation 100 μl of SYBR Green I buffer [0.2 μl of 10,000 X SYBR Green I (Invitrogen) per ml of lysis buffer {Tris (20 mM; pH 7.5), EDTA (5 mM), saponin (0.008%; wt/vol), and Triton X-100 (0.08%; vol/vol)}] was added to each well, mixed twice gently with multi-channel pipette and incubated in dark at 37 °C for 1 h. Fluorescence was measured with a Victor fluorescence multi-well plate reader (Perkin Elmer) with excitation and emission wavelength centred at 485 and 530 nm, respectively. Fluorescence counts for CQ (0.1 μM for 3D7, 1 μM for INDO) were subtracted from counts in each well. The fluorescence counts were plotted against the drug concentration and IC50 (the 50% inhibitory concentration) was determined by analysis of dose–response curves. Results of the above mentioned fluorescence-based assay were validated microscopically by examination of Giemsa-stained smears of peptide-treated parasite cultures. Statistical significance of relative potencies of peptides was determined by student’s T test.

[2] = test system: P. falciparum 3D7 (chloroquine-sensitive); assay: microbe, parasite or virus in culture; assay type: cell-based, Plasmodium falciparum
Experimental: as §1, §2, §3

[3] = test system: P. falciparum INDO (CQ-resistant); assay: microbe, parasite or virus in culture; assay type: cell-based; conditions: Plasmodium falciparum; ring stage synchronized, 48 hr, SYBR Green I fluorescence, medium with 10% human serum; ± SD of three independent observations
Experimental: as §1, with “Synchronized ring stage parasite was obtained by 5% sorbitol treatment. Trophozoites and schizont-stage parasites were enriched by using Percoll gradient.” left out
For drug screening, SYBR green I based fluorescence assay was used as described previously by Smilkstein et al.[30]. […] Fluorescence was measured with a Victor fluorescence multi-well plate reader (Perkin Elmer) with excitation and emission wavelength centred at 485 and 530 nm, respectively. Fluorescence counts for CQ (0.1 μM for 3D7, 1 μM for INDO) were subtracted from counts in each well. […] Results of the above mentioned fluorescence-based assay were validated microscopically by examination of Giemsa-stained smears of peptide-treated parasite cultures. Statistical significance of relative potencies of peptides was determined by student’s T test.

[4] = test system: infected erythrocytes (PRBC); assay: Haemolysis assay, parasitized red cells; assay type: cell-based, Plasmodium falciparum; conditions: for haemolysis of infected red cells by control peptides: up to 40 μM, 3 hr, A415
Experimental: (§4) Selectivity of haemolysis by peptides for infected erythrocytes (PRBC) vs uninfected erythrocytes (URBC) was examined by incubating the test molecules with URBCs and PRBCs respectively in phosphate-buffered saline (PBS). Briefly, fresh RBCs were spin washed (1600 RPM; 5 min) three times in PBS and re-suspended in PBS at 2% haematocrit. A 100 μl suspension was added to 96-well plate containing the peptides at different concentrations. […] After incubation at 37°C for 3 hr, the samples were centrifuged and supernatant was used to determine the haemolytic activity measured in terms of haemoglobin release as monitored by […]. Triton-treated control samples were diluted 10-fold before reading absorbance. […] Percent haemolysis has been expressed with reference to 100% haemolysis value assigned to positive control (triton X 100 treated RBCs). To study haemolytic susceptibility of parasitized cells, URBCs were replaced with varying percentages (10% and 20%) of mixed stage parasitized cells. […] Haemolysis of parasitized erythrocytes was also monitored microscopically by examining the Giemsa-stained smears. Parasitaemia of ΔFd treated and untreated cultures were microscopically counted for ring, trophozoite and schizont stages respectively. Susceptibility of different stages was compared with corresponding untreated control cultures.

[5] = test system: uninfected erythrocytes (URBC); assay: Haemolysis assay, uninfected red cells; assay type: cell-based, human
Experimental: as §4

[6] = test system: P. falciparum 3D7 (chloroquine-sensitive); assay: microbe, parasite or virus in culture; assay type: cell-based, Plasmodium falciparum; remark: listed apart in the source
[7] = test system: P. falciparum 3D7 trophozoites; assay: Immunofluorescence staining of MSP3 in ΔFd treated trophozoite cultures; assay type: cell-based, Plasmodium falciparum; conditions: ΔFd 2.5 μM, 37°C, 6 hr; three independent observations
Experimental: Immunohistochemical Fluorescence staining of MSP3 in ∆Fd treated Trophozoite and Schizont cultures.
To probe mechanistic details of ∆Fd-mediated, premature parasite egress, P. falciparum 3D7 culture (2%
parasitaemia, 2% haematocrit) was incubated without (control) or with ∆Fd (2.5 µM) at 37°C for 6 hr in a final
volume of 100 µl made with RPMI (96 µl RPMI + 4 µl peptide solution). Smears were processed as follows: (a)
flooded with 2% BSA/PBS (1 hr, 37°C), (b) PBS washed and (c) flooded (1 hr, 370C) with polyclonal anti-MSP3
antibody produced in mouse (1: 100 dilution in 1% BSA/PBS), (d) PBS washed and (e) flooded with alexa fluor 488
labelled anti-mouse antibody (Sigma) (1: 500 dilution in 1% BSA/PBS, 1 hr, 370C in dark), (e) PBS washed and (f)
flooded with DAPI (4, 6-diamidino-2-phenylindole) (invitrogen) (500 ng/ml, 10 min, 370 C). After a final PBS wash
the smears were observed under Nikon eclipse fluorescence microscope using appropriate filters.

[8] = test system: proteases; conditions: branched dimer compared with linear dimer (ΔFm)2; cited from earlier work
From the text: Some important features of these peptides as drugs against malaria include their favourable resistance indices (Table 1) that allow them to rapidly kill both drug-sensitive and drug-resistant strains of malaria parasite with equal potencies, their amphipathic nature that gives them drug-like character, and their ability to permeabilize and penetrate biological membranes, which allows them to attack target cells both from the surface as well as intracellularly. In addition, the presence of the conformationally constrained, non-protein, amino acid didehydrophenylalanine in both ΔFd and (ΔFm)2 pr ...

[9] = test system: HeLa cells; assay type: cell-based; conditions: 48 h
Experimental: The cytotoxic effects of ΔFd on mammalian cells was assessed by functional assay as described using HeLa cells cultured in RPMI containing 10% fetal bovine serum, 0.21% sodium bicarbonate (Sigma) and 50 μg/mL gentamycin (complete medium). Briefly, cells (10^4 cells/200 μl/well) were seeded into 96-well flat-bottom tissue culture plates in complete medium. […] DMSO (as positive inhibitor) was added at 10%. Twenty microlitres of a stock solution of MTT (5 mg/mL in 1X phosphate buffered saline) was added to each well, gently mixed and incubated for another 4 hr. After spinning the plate at 1500 rpm for 5 min, supernatant was removed and 100 μl of DMSO (stop agent) was added. Formation of formazon was read on a microtiter plate reader (Versa max tunable multi-well plate reader) at 570 nm. The 50% cytotoxic concentration (TC50) of drug was determined by analysis of dose–response curves.

[10] = test system: Plasmodium-infected RBCs (PRBC); assay: Fluorescence microscopy of FITC-peptide localization; assay type: cell-based, Plasmodium falciparum; conditions: 2-3 μM, 30 min, 37°C, complete medium
Experimental: For studying peptide localization, P. falciparum cultures were individually incubated with FITC-ΔFd (2 μM), FITC-(ΔFm)2 (2 μM) or FITC-Insulin (3 μM) a) alone and b) together with DAPI in complete medium at 37°C for 30 min and the cells were spin washed (1,600 RPM, 5 min) twice with 1 X PBS to reduce background fluorescence. The cells were smeared on a glass slide, and fluorescence was visualized by using the respective filter settings for FITC and DAPI.
For studying the selectivity and route of transport of ΔFd into the red cell-resident malaria parasite, URBC and PRBC were incubated with FITC-ΔFd (4 μM) in parallel sets at 4°C vs at room temperature (25°C) for specified times and spin washed (1,600 RPM, 2 min) with complete medium (3 X 200 μl). The cells were smeared on a glass slide and both bright field images and fluorescence images (using FITC filter) were captured at 100 X magnification using Nikon eclipse fluorescence microscope. The software Adobe Photoshop was used to overlay the fluorescence image on the bright field image.

[11] = ring stage synchronized, haematocrit 2%, parasitaemia 1%, 48 hr, SYBR Green I fluorescence, ± SD of three independent observations, read-out: IC50 P. falciparum 3D7
[12] = 2% haematocrit in PBS, 37°C, 3 hr, haemoglobin release A415, 100% = 0.4% Triton X-100, ± SD of three independent observations

C[C@@H]1CC[C@H]2[C@@H](C)C(=O)O[C@@H]3O[C@@]4(C)CC[C@@H]1[C@]32OO4 [Artemisinin, reference compound]
Resistance index IC50 Dd2/ IC50 3D7 [1]: 1 | IC50 ([1]; Plasmodium falciparum, DD2, ring stage synchronized, haematocrit 2%, parasitaemia 1%, 48 hr, SYBR Green I fluorescence, ± SD of three independent observations, read-out: IC50 P. falciparum Dd2): 16 nM | IC50 ([2]; Plasmodium falciparum, 3D7, ring stage synchronized, haematocrit 2%, parasitaemia 1%, 48 hr, SYBR Green I fluorescence, ± SD of three independent observations, read-out: IC50 P. falciparum 3D7): 15 nM | IC50 [3]: 15 nM

CC(C)C[C@H](NC(=O)[C@H](CCC(N)=O)NC(=O)[C@@H]1CCCN1C(=O)[C@H](CC(C)C)NC(=O)[C@H](CC(=O)O)NC(=O)[C@@H](NC(=O)[C@@H](NC(=O)[C@H](Cc1c[nH]cn1)NC(=O)[C@@H]1CCCN1C(=O)[C@H](CC(C)C)NC(=O)[C@@H]1CCCN1C(=O)[C@@H]1CCCN1C(=O)[C@H](C)NC(=O)[C@H](CO)NC(=O)[C@@H]1CCCN1C(=O)[C@H](CCCNC(=N)N)NC(=O)[C@@H](NC(=O)[C@H](C)NC(=O)CNC(=O)[C@H](CC(C)C)NC(=O)[C@@H]1CCCN1C(=O)[C@H](C)NC(=O)[C@H](CO)NC(=O)[C@H](Cc1c[nH]cn1)NC(=O)[C@H](CC(=O)O)NC(=O)[C@@H]1CCCN1C(=O)[C@@H]1CCCN1C(=O)[C@@H](N)CC(N)=O)[C@@H](C)O)C(C)C)C(C)C)C(=O)NCC(=O)N1CCC[C@H]1C(=O)O [E30, reference compound] (H-NPPDHSAPLGATRPSAPPLPHVVDLPQLGP-OH)
IC50 [2, 11]: > 40000 nM | haemolysis of infected red cells by control peptides [4]: not to show any haemolysis | HC50 URBC [5, 12]: > 40 µM

CC(=O)NCC(=O)N/C(=C\c1ccccc1)C(=O)N[C@@H](CCCNC(=N)N)C(=O)N[C@@H](CCCCN)C(=O)N/C(=C\c1ccccc1)C(=O)N[C@@H](Cc1c[nH]cn1)C(=O)N[C@@H](CCCCN)C(=O)N/C(=C\c1ccccc1)C(=O)N[C@@H](Cc1c[nH]c2ccccc12)C(=O)N[C@@H](C)C(=O)NCCCC[C@H](NC(=O)[C@H](C)NC(=O)[C@H](Cc1c[nH]c2ccccc12)NC(=O)/C(=C/c1ccccc1)NC(=O)[C@H](CCCCN)NC(=O)[C@H](Cc1c[nH]cn1)NC(=O)/C(=C/c1ccccc1)NC(=O)[C@H](CCCCN)NC(=O)[C@H](CCCNC(=N)N)NC(=O)/C(=C/c1ccccc1)NC(=O)CNC(C)=O)C(N)=O [ΔFd] (I: Ac-G[X1]RK[X1]HK[X1]WAK-NH2 / II: Ac-G[X1]RK[X1]HK[X1]WA; amide I:11-II:C; N-terminus and C-terminus assumed)
IC50 ([1]; Dd2 (CQ-resistant, 48 h)): 1600 ± 90 nM | Resistance index IC50 Dd2/ IC50 3D7 [1]: 1.1 and ~ 1 | IC50 ([2]; 3D7 (chloroquine-sensitive, 48 h)): 1390 ± 100 nM | increment in potency at 96 hr (two cycles) vs 48 hr (one cycle) ([6]; P. falciparum 3D7, SYBR Green assay): 1.1 fold | IC70 ([6]; P. falciparum 3D7, dose used on trophozoite and schizont cultures): 2500 nM | percentage haemolysis, mixed culture 10% parasitaemia ([4]; 3 h): 7% | percentage haemolysis, mixed culture 20% parasitaemia ([4]; 3 h): 16% | anomalously egressed trophozoites with MSP3 staining [7]: ~ 40% | stability against proteases [8]: more stable against proteases | TC50 HeLa cells [9]: > 25000 nM | HC50 URBC ([5]; 3 h): > 50 µM | Hemolytic Selectivity index (HC50 URBC/ IC50 Pf 3D7) ([5]; 3 h): > 35

FITC-insulin: FITC-Insulin (Sigma), control for uptake
uptake of FITC-labelled peptide by parasitized cells [10]: no accumulation

Insulin: bovine insulin (Sigma), control peptide [reference compound]
IC50 [2, 11]: > 40000 nM | haemolysis of infected red cells by control peptides [4]: not to show any haemolysis | HC50 URBC [5, 12]: > 40 µM
